From patent US9346799B2, “Useful combinations of monobactam antibiotics with beta-lactamase inhibitors” (Basilea Pharmaceutica AG, priority 2005, dated 2016)

Experiments:
Assay in all cases: MIC by broth microdilution (NCCLS M7-A5)
Serratia marcescens S6 = system: Serratia marcescens S6
[1] = system: Pseudomonas aeruginosa MK1184
[2] = system: Enterobacter aerogenes Zayakosky; details: Enterobacter aerogenes Zayakosky 5
Acinetobacter sp. J2 = details: Acinetobacter baumannii J2
[3] = system: Klebsiella pneumoniae CF104
[4] = system: Acinetobacter baumannii J51; format: cell-based
Method: Antimicrobial activity of the compounds and of their combinations was determined against a selection of organisms according to the standard procedures described by the National Committee for Clinical Laboratory Standards (National Committee for Clinical Laboratory. Standards (2000). Methods for Dilution Antimicrobial Susceptibility Tests for Bacteria That Grow Aerobically-Fifth Edition: Approved Standard M7-A5. NCCLS, Wayne, Pa., USA).
In all cases the final concentration of DMSO incubated with the bacteria is less than or equal to 1%. […] Plates were incubated overnight at an appropriate temperature (30° C. or 37° C.) and optical densities assessed by eye. The MIC value is defined as the lowest compound concentration completely inhibiting visible growth of the test organism. When combinations between compounds of formula I with compounds of formula II and are evaluated the compounds of formula I are tested in dilution series as described above while the compounds of formula II and III-XIII were present in all wells at a constant concentration of 4 μg/mL each.

Enterobacter cloacae P99 = system: Enterobacter cloacae P99
[5] = system: Stenotrophomonas malthophilia 1AC736; details: Stenotrophomonas maltophilia 1AC736
[6] = system: Pseudomonas aeruginosa 1973E

Question: For `CC1(C)[C@H](NC(=O)/C(=N\OCc2cc(=O)c(O)cn2O)c2csc(N)n2)C(=O)N1OS(=O)(=O)O` [Compound 26, (3S)-3-{(2Z)-2-(2-amino(1,3-thiazol-4-yl))-3-[(1,5-dihydroxy-4-oxo(2-hydropyridyl))methoxy]-3-azaprop-2-enoylamino}-4,4-dimethyl-2-oxoazetidinyl hydroxysulfonate], which MIC of antibiotic (Serratia marcescens S6; + 324 4 mg/L) is on record?
Answer: ≦0.06 mg/L

Question: And the MIC of antibiotic (Serratia marcescens S6; + 324 + sulbactam, 4 mg/L each)?
Answer: <0.06 µg/mL

Question: And the MIC of antibiotic (Serratia marcescens S6; + BRL427158 4 mg/L)?
Answer: ≦0.06 mg/L

Question: What about the MIC of antibiotic (Serratia marcescens S6; + clavulanate 4 mg/L) of the same molecule?
Answer: ≦0.06 mg/L

Question: And the MIC of antibiotic (Serratia marcescens S6; antibiotic alone)?
Answer: <0.06 µg/mL

Question: And the MIC of antibiotic ([1]; + 324 4 mg/L)?
Answer: 4 µg/mL

Question: What about the MIC of antibiotic ([1]; + 324 + sulbactam, 4 mg/L each) of the same molecule?
Answer: 2 µg/mL

Question: And the MIC of antibiotic ([1]; + BRL427158 4 mg/L)?
Answer: 2 µg/mL

Question: What about the MIC of antibiotic ([1]; + clavulanate 4 mg/L) of the same molecule?
Answer: 4 µg/mL

Question: And the MIC of antibiotic ([1]; antibiotic alone)?
Answer: 2 µg/mL

Question: What about the MIC of antibiotic ([2]; + 324 4 mg/L) of the same molecule?
Answer: 4 µg/mL

Question: What about the MIC of antibiotic ([2]; + BRL427158 4 mg/L) of the same molecule?
Answer: 0.5 µg/mL

Question: And the MIC of antibiotic ([2]; + clavulanic acid 4 mg/L)?
Answer: 8 µg/mL

Question: And the MIC of antibiotic ([2]; antibiotic alone)?
Answer: 16 µg/mL

Question: What about the MIC of antibiotic (Acinetobacter sp. J2; + 324 4 mg/L) of the same molecule?
Answer: 4 µg/mL

Question: And the MIC of antibiotic (Acinetobacter sp. J2; + 324 + sulbactam, 4 mg/L each)?
Answer: 2 µg/mL

Question: And the MIC of antibiotic (Acinetobacter sp. J2; + BRL427158 4 mg/L)?
Answer: 0.5 µg/mL

Question: And the MIC of antibiotic (Acinetobacter sp. J2; + clavulanate 4 mg/L)?
Answer: >32 µg/mL

Question: What about the MIC of antibiotic (Acinetobacter sp. J2; antibiotic alone) of the same molecule?
Answer: 4 µg/mL

Question: What about the MIC of antibiotic ([3]; + 324 4 mg/L) of the same molecule?
Answer: 16 µg/mL

Question: What about the MIC of antibiotic ([3]; + 324 + sulbactam, 4 mg/L each) of the same molecule?
Answer: 1 µg/mL

Question: What about the MIC of antibiotic ([3]; + BRL427158 4 mg/L) of the same molecule?
Answer: 0.125 µg/mL

Question: What about the MIC of antibiotic ([3]; + clavulanate 4 mg/L) of the same molecule?
Answer: 0.5 µg/mL

Question: And the MIC of antibiotic ([3]; antibiotic alone)?
Answer: 32 µg/mL

Question: What about the MIC of antibiotic ([4]; + 324 4 mg/L) of the same molecule?
Answer: 2 µg/mL

Question: And the MIC of antibiotic ([4]; + BRL427158 4 mg/L)?
Answer: 32 µg/mL

Question: And the MIC of antibiotic ([4]; + clavulanic acid 4 mg/L)?
Answer: 1 µg/mL

Question: And the MIC of antibiotic ([4]; antibiotic alone)?
Answer: 4 µg/mL

Question: And the MIC of antibiotic (Enterobacter cloacae P99; + 324 4 mg/L)?
Answer: 2 µg/mL

Question: And the MIC of antibiotic (Enterobacter cloacae P99; + 324 + sulbactam, 4 mg/L each)?
Answer: 2 µg/mL

Question: And the MIC of antibiotic (Enterobacter cloacae P99; + BRL427158 4 mg/L)?
Answer: 2 µg/mL

Question: What about the MIC of antibiotic (Enterobacter cloacae P99; + clavulanate 4 mg/L) of the same molecule?
Answer: 8 µg/mL

Question: And the MIC of antibiotic (Enterobacter cloacae P99; antibiotic alone)?
Answer: 16 µg/mL

Question: And the MIC of antibiotic ([5]; + 324 4 mg/L)?
Answer: 0.25 µg/mL

Question: And the MIC of antibiotic ([5]; + 324 + sulbactam, 4 mg/L each)?
Answer: 0.25 µg/mL

Question: What about the MIC of antibiotic ([5]; + BRL427158 4 mg/L) of the same molecule?
Answer: 0.125 µg/mL

Question: And the MIC of antibiotic ([5]; + clavulanate 4 mg/L)?
Answer: ≦0.06 mg/L

Question: What about the MIC of antibiotic ([5]; antibiotic alone) of the same molecule?
Answer: <0.06 µg/mL

Question: And the MIC of antibiotic ([6]; + 324 4 mg/L)?
Answer: 4 µg/mL

Question: What about the MIC of antibiotic ([6]; + 324 + sulbactam, 4 mg/L each) of the same molecule?
Answer: 2 µg/mL

Question: What about the MIC of antibiotic ([6]; + BRL427158 4 mg/L) of the same molecule?
Answer: 2 µg/mL

Question: And the MIC of antibiotic ([6]; + clavulanate 4 mg/L)?
Answer: 2 µg/mL

Question: And the MIC of antibiotic ([6]; antibiotic alone)?
Answer: 16 µg/mL
